“Also recorded” adds a separate entry of the source. Like-named read-outs stand apart in the source and are kept apart here. Blank lines part the entries; values can stand above or below the compound they belong to.
Columns and labels:
[1] = tested on: protein synthesis in HCT116 cells; experiment: Protein synthesis inhibition assay (transient exposure, followed by washout), O-propargyl puromycin incorporation; format: cell-based; details: 100 nM for 4 h, 24 h compound-free media
Description: HCT116 cells at 80% confluency in 24-well plates were incubated with compounds with at 100 nM for 4 hours at 37° C. O-propargyl-puromycin (30 uM final concentration) was then added, and the cells were incubated for 1 hour at 37° C. Media was carefully removed, cells were washed with warm PBS twice (2× short wash), followed by 5 min incubation in warm medium at 37° C. (long wash). After repeating the “short-long” washing cycle for 3 times, cells were then resuspended in warm media and incubated at 37° C. After the indicated time post-washout, media was removed, and cells were trypsinized, collected, and washed twice with ice-cold PBS before transferring to a 96-well V bottom plate. 100 uL Zombie Red (BioLegend, San Diego, Calif.) solution was added to each well and incubated for 30 min at RT in the dark. Cells were then washed with 2% FBS in PBS buffer before fixed with 200 uL of 4% PFA in PBS for 15 min on ice in dark. After washing the cells with 2% FBS in PBS buffer, 200 uL permeabilization buffer (3% FBS, 0.1% Saponin in PBS) was added to each well, and cells were incubated for 5 min at RT in the dark. Cells were then washed and resuspended in 25 uL permeabilization buffer. 100 uL click chemistry mix (50 mM HEPES pH=7.5, 150 mM NaCl, 400 uM TCEP, 250 uM TBTA, 5 uM CF405M-Azide (Biotium, Fremont, Calif.), 200 uM Cu2SO4) was added to each well, and cells were incubated at RT in dark. After the overnight incubation, cells were washed with permeabilization buffer followed by FACS buffer (2% FBS, 1% P/S, 2 mM EDTA, in PBS w/o Ca/Mg). Cells were then resuspended in 200 uL FACS buffer and filtered before FACS analysis (FACSCanto II, Becton Dickinson, Franklin Lakes, N.J.). Only single, live cells were analyzed (FlowJo), as judged by forward/side scattering and the absence of Zombie Red staining. Protein synthesis inhibition curves were generated by first normalizing intensity to the cycloheximide-treated (50 μg/mL for 1 h, maximum inhibition) and DMSO-treated control samples. Normalized intensity was plotted in GraphPad Prism.

[2] = tested on: HCT116, H929, and MM1S cells; experiment: Proliferation assay (continuous exposure), 72 h, Alamar Blue; format: cell-based; details: 72 h continuous
Description: To assess in vitro anticancer activity, HCT116, H929, and MM1S cells were treated continuously for 72 hours with increasing concentrations of (S,S)-A3, (S,R)-A3, or dA3 (cyclic peptide 4 (Carelli, Taunton, et al., eLife, 2015), here termed “dA3” (deoxy-A3)). Cell viability was then assessed using the Alamar Blue assay.

[3] = tested on: HCT116, H929, and MM1S cells; experiment: Proliferation assay (transient exposure, followed by washout), CellTiter Glo; format: cell-based; details: for antiproliferative activity after transient exposure and washout: 1 h or 4 h exposure, stringent washout, 72 h compound-free media, HCT116, H929, MM1S
Description: 0.6×10^6 cells were seeded in 3 mL complete growth media per well in 6-well plates. […] For adherent cells, growth media was carefully removed, cells were washed with warm PBS twice (2×short wash), and followed by 5 min incubation in warm media at 37° C. (long wash). After repeating the “short-long” washing cycle 3 times, cells were resuspended in warm media and plated in flat-bottom 96-well plates (100 uL/well) at equal cell number. For suspension cells, cells were collected and spun down at 300×g for 3 min. Supernatant was carefully removed, cells were then washed with warm PBS twice (2× short wash), followed by 5 min incubation in warm media at 37° C. (long wash). After repeating the “short-long” washing cycle 3 times, cells were resuspended in warm media and plated in flat-bottom 96-well plates (100 uL/well) at equal cell number. After the indicated times post-washout, CellTiter Glo (Promega, Madison, Wis.) was used to asses the cell viability per the manufacturer's instructions. Briefly, after adding 100 uL CellTiter Glo reagent to each well, the plate was rocked at room temperature for 5-10 min, and luminescence intensity was measured. Proliferation curves were generated by first normalizing luminescence intensity in each well to the average T=0 value for each compound. Normalized luminescence intensity was plotted in GraphPad Prism (triplicate values, mean±SD).

HCT116 cells = experiment: Cell viability, Alamar Blue, 24 h treatment; format: cell-based; details: relative to DMSO controls
Description: 5,000 HCT116 cells were seeded in 100 μL complete growth media per well in 96-well plates.

[4] = tested on: eEF1A-mutant (A399V) HCT116 cells; details: read-out: IC50, cell proliferation in eEF1A-mutant (A399V) cells; 72 h; AlamarBlue
Description: Cell proliferation (% DMSO control) was quantified using AlamarBlue. […] Data points (% DMSO control) are mean values±SD (n=3).
Adherent cells were briefly trypsinized and repeatedly pipetted to produce a homogeneous cell suspension. 2,500 cells were seeded in 100 uL complete growth media per well in 96-well clear-bottom plates. Suspension cells were repeatedly pipetted to produce a homogeneous cell suspension. 10,000 cells were seeded in 100 uL complete growth media per well in 96-well clear-bottom plates. After allowing cells to grow/adhere overnight, cells were treated with 25 uL/well 5×drug stocks (0.1% DMSO final) and incubated for 72 hr. AlamarBlue (Life Technologies, Grand Island, N.Y.) was used to assess cell viability per the manufacturer's instructions. Briefly, 12.5 uL alamarBlue reagent was added to each well, and plates were incubated at 37° C. Fluorescence intensity was measured every 30 min to determine the linear range for each assay (Ex 545 nm, Em 590 nm, SPARK, Tecan Austria GmbH, Austria). Proliferation curves were generated by first normalizing fluorescence intensity in each well to the DMSO-treated plate average. Normalized fluorescence intensities were plotted in GraphPad Prism (GraphPad, La Jolla, Calif.), and IC50 values calculated from nonlinear regression curves. The reported IC50 values represent the average of at least three independent determinations (±SD).

[5] = tested on: protein synthesis in HCT116 cells; experiment: Protein synthesis inhibition assay (continuous exposure), O-propargyl puromycin incorporation; format: cell-based; details: 24 h treatment, 1 h OPP pulse, read-out: IC50, rate of protein synthesis
Description: HCT116 cells at 80% confluency in 12-well plates were incubated with compounds with varying concentrations for 10 min or 24 hours at 37° C. After the indicated time, O-propargyl-puromycin (30 μM final concentration) was added, and the cells were incubated for 1 hour at 37° C. Subsequently, media was removed, and cells were trypsinized, collected, and washed twice with ice-cold PBS before transferring to a 96-well V bottom plate. 100 uL Zombie Red (BioLegend, San Diego, Calif.) solution was added to each well and incubated for 30 min at RT in dark. Cells were then washed with 2% FBS in PBS buffer before fixed with 200 uL of 4% PFA in PBS for 15 min on ice in dark. After washing the cells with 2% FBS in PBS buffer, 200 uL permeabilization buffer (3% FBS, 0.1% saponin in PBS) was added to each well, and the cells were incubated for 5 min at RT in the dark. Cells were then washed and resuspended in 25 uL permeabilization buffer. 100 uL click chemistry mix (50 mM HEPES pH=7.5, 150 mM NaCl, 400 uM TCEP, 250 uM TBTA, 5 uM CF405M-Azide (Biotium, Fremont, Calif.), 200 uM Cu2SO4) was added to each well, and cells were incubated at RT in the dark. […] Only single, live cells were analyzed (FlowJo), as judged by forward/side scattering and the absence of Zombie Red staining. […]

FIG. 14 [6] = experiment: FIG. 14
Description: (§1) Table printed on a drawing sheet, FIG. 14
(§2) The patent's description of the figure: FIG. 14. SRA3 pharmacokinetic data. PK studies were performed in C57BL/6 mice
First reader's note: IV route is given in the head cell of the first column; the plot legend on the same sheet prints IV 2 mg/kg in mouse.

FIG. 14 [7] = experiment: FIG. 14; remark: listed apart in the source
Description: as §1, §2
First reader's note: IP route is given in the head cell of the first column; the plot legend on the same sheet prints IP 2 mg/kg in mouse.

[8] = biological target: eEF1A (Elongation Factor 1-alpha), wild type (UniProt P68104); experiment: cell-based or functional assay
Eμ-Myc/+ lymphoma cells = experiment: Eμ-Myc mouse lymphoma model; format: in vivo
Description: Mouse studies were approved by the University of California, San Francisco Institutional Animal Care and Use Committee (IACUC). Eμ-Myc/+ mice were purchased from the Jackson Laboratory. For the Eμ-Myc tumor model, allograft mice were generated using spontaneous lymph node tumors derived from Eμ-Myc mice. 5×10^5 Eμ-Myc/+ lymphoma cells were injected via the tail vein into eight-week-old male C57BL/6J mice. Seven days after lymphoma cell injection, mice were randomized to receive vehicle (10% EtOH/Kolliphor EL in water, n=5 mice) or (S,R)-A3 (n=5 mice) by intraperitoneal injection every other day (3 times per week) until the endpoint based on the IACUC-approved protocol. Eμ-Myc mice in the (S,R)-A3 treatment arm received (S,R)-A3 at a dose of 2 mg/kg for the first 21 days and 1-2 mg/kg after treatment day 21 according to their body weights (BW): BW>26 g, 2 mg/kg; BW 25-26 g, 1.5 mg/kg; BW 24-25 g, 1 mg/kg).
We next tested the effect of (S,R)-A3 in a preclinical mouse model of B-cell lymphoma using an intermittent dosing regimen (QOD×3, every other day, 3 doses per week via intraperitoneal injection). Eμ-Myc/+ mice are a well-characterized mouse lymphoma model that overexpress MYC under the transcriptional control of the IgH enhancer element. These mice recapitulate the genetic lesion underlying Burkitt's Lymphoma. Eμ-Myc/+ lymphoma cells were injected via the tail vein into eight-week-old male C57BL/6J mice. Seven days after lymphoma cell injection, mice were randomized to receive vehicle or (S,R)-A3 by intraperitoneal injection (QOD×3, n=5 mice/treatment arm).

[9] = C57BL/6, mouse, in vivo, iv, 2 mg/kg
[10] = C57BL/6, mouse, in vivo, ip, 2 mg/kg

Sequence of eEF1A (Elongation Factor 1-alpha), wild type (P68104 2-462): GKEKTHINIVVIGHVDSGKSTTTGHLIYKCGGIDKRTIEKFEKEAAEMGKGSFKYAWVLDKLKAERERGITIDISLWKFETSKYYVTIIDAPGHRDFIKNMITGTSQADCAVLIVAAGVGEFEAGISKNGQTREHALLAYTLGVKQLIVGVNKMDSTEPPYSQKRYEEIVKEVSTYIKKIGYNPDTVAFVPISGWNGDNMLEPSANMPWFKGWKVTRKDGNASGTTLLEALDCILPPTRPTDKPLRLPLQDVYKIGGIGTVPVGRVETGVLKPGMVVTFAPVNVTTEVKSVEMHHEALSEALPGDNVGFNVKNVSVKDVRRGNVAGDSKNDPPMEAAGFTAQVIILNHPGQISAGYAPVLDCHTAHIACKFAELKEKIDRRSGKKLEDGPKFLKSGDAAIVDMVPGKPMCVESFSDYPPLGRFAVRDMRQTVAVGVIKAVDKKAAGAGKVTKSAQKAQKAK

Compound: C=C[C@H](C)C[C@@H]1NC(=O)[C@H]([C@@H](O)C(C)C)N(C)C(=O)[C@H](C)N(C)C(=O)[C@@H]([C@@H](C)CC)NC(=O)[C@@H]([C@H](O)C(C)C)NC(=O)[C@H]2CCCCN2C(=O)[C@H](C)N(C)C1=O [(S,S)-A3]
recovery of protein synthesis after washout [1]: partially recovered
reduction of cell viability, continuous treatment [2]: low nanomolar concentrations
antiproliferative activity after transient exposure and washout [3]: less efficacious

Compound: C=C[C@H](C)C[C@@H]1NC(=O)[C@H]([C@H](O)C(C)C)N(C)C(=O)[C@H](C)N(C)C(=O)[C@@H]([C@H](C)CC)NC(=O)[C@@H]([C@H](O)C(C)C)NC(=O)[C@H]2CCCCN2C(=O)[C@H](C)N(C)C1=O [WHY3179]
IC50 (HCT116 cells): 6.3 nM

Compound: C=C[C@H](C)C[C@@H]1NC(=O)[C@H]([C@H](O)C(C)C)N(C)C(=O)[C@H](C)N(C)C(=O)[C@@H]([C@@H](C)CC)NC(=O)[C@@H]([C@H](O)C2CC2)NC(=O)[C@H]2CCCCN2C(=O)[C@H](C)N(C)C1=O [WHY4014]
IC50 (HCT116 cells): 14.8 nM

Compound: C=C[C@H](C)C[C@@H]1NC(=O)[C@H]([C@H](O)C(C)C)N(C)C(=O)[C@H](C)N(C)C(=O)[C@@H]([C@@H](C)CC)NC(=O)[C@@H]([C@H](O)C(C)C)NC(=O)[C@H]2CCCCN2C(=O)[C@H](C)N(C)C1=O [SR-A3]
recovery of protein synthesis after washout [1]: sustained inhibition
IC50 [4]: > 1000 nM
IC50 [5]: ~20 nM
cell proliferation after washout ([3]; HCT116, 100 nM for 4 h, rigorous washout, 72-h washout period): nearly abolished

Compound: C=C[C@H](C)C[C@@H]1NC(=O)[C@H]([C@H](O)C(C)C)N(C)C(=O)[C@H](C)N(C)C(=O)[C@@H]([C@@H](C)CC)NC(=O)[C@@H]([C@H](O)C(C)C)NC(=O)[C@H]2CCCCN2C(=O)[C@H](C)N(C)C1=O [SRA3]
AUCInf (FIG. 14 [6]): 395 ng·h/mL
AUClast (FIG. 14 [6]): 367 ng·h/mL
CL (FIG. 14 [6]): 87.2 mL/min/kg
Vss (FIG. 14 [6]): 42.0 L/kg
Vz (FIG. 14 [6]): 52.7 L/kg
C0 (FIG. 14 [6]; [9]): 204 ng/mL
MRT (FIG. 14 [6]; [9]): 7.97 h
half-life (FIG. 14 [6]; [9]): 6.79 h
AUCInf (FIG. 14 [7]): 384 ng·h/mL
AUCInf/D (FIG. 14 [7]): 192 kg·ng·h/mL/mg
AUClast (FIG. 14 [7]): 347 ng·h/mL
F (%) (FIG. 14 [7]): 97.2%
tmax (FIG. 14 [7]): 0.583 h
Cmax (FIG. 14 [7]; [10]): 86.6 ng/mL
MRT (FIG. 14 [7]; [10]): 8.63 h
half-life (FIG. 14 [7]; [10]): 8.21 h

cell proliferation rate after transient exposure (100 nM, 4 h) and washout, HCT116 cells, % of DMSO control (% of DMSO control) [8]: 50
protein synthesis rate 24 h after washout (100 nM for 4 h), HCT116 cells, % of DMSO control (% of DMSO control) [8]: 30
rate of protein synthesis (OPP incorporation), HCT116 cells, 10 min treatment; potency relative to SR-A3 [8]: 10 fold
Compound: ternatin-4 (peptide)

Compound: C=C[C@H](C)C[C@@H]1NC(=O)[C@H]([C@H](O)C(C)C)N(C)C(=O)[C@H](C)N(C)C(=O)[C@@H]([C@@H](C)CC)NC(=O)[C@@H]([C@H](O)C(C)C)NC(=O)[C@H]2CCCCN2C(=O)[C@H](C)N(C)C1=O [(S,R)-A3]
recovery of protein synthesis after washout [1]: sustained, washout-resistant manner
reduction of cell viability, continuous treatment [2]: low nanomolar concentrations
maximum BW loss (Eμ-Myc/+ lymphoma cells; 2 mg/kg (1-2 mg/kg after day 21) intraperitoneal, QOD×3): < 8%
survival (Eμ-Myc/+ lymphoma cells; 2 mg/kg (1-2 mg/kg after day 21) intraperitoneal, QOD×3, P=0.0027): significantly improved survival
tumor growth (Eμ-Myc/+ lymphoma cells; 2 mg/kg (1-2 mg/kg after day 21) intraperitoneal, QOD×3, start 7 days after cell injection): reduced tumor growth
efficacy in mouse lymphoma model (Eμ-Myc/+ lymphoma cells; Eμ-Myc mouse model of B-cell lymphoma): efficacious
antiproliferative activity after transient exposure and washout [3]: profound and sustained loss of cell viability; also recorded: strong antiproliferative activity
